In EP0670826B1, “FATTY ACID DERIVATIVES AND PHARMACEUTICAL COMPOSITIONS CONTAINING THEM” (YISSUM RESEARCH DEVELOPMENT COMPANY OF THE HEBREW …, priority 1992, dated 1994):

Tests used:
[1] = test system: intraocular pressure (I.O.P.); assay: antiglaucoma activity in stable glaucoma induced by chymotrypsin injection into the eye; type: in vivo; settings: 0.01% aq. solution, rabbits
Method: The compounds were also tested for antiglaucoma activity in rabbits with stable glaucoma induced by δ-chymotrypsin injection into the eye as described in detail in R. Mechoulam et al., On the therapeutic possiblities of some cannabinoids in "The Therapeutic Potential of Marihuana" (eds S. Cohen. R.C. Stillman) Plenum Press, New York, 1975. pp. 35-48). The compounds were compared in activity to that of pilocarpine (a standard antiglaucoma drug) which at 0.01% aq. solution reduces the intraocular pressure (I.O.P.) and delays recovery to half time of the original I.O.P. about 30 hours. […] The compounds were dissolved as described for analgesia and further diluted with saline to obtain the required concentration.

[2] = test system: mice; assay: standard hot plate test (analgesia); type: in vivo; settings: Mus musculus; in mice, intravenous injection in the tail vein; read-out: Analgesia ED=50
Method: Analgesia. The novel compounds were tested in the standard hot plate test.
Represenatative results are presented in Table I. The compounds were dissolved in a detergent (Emulphor): ethanol: saline (5:5:90) and administered by intravenous injection in the tail vein with an injection volume of 0.1 ml/10g of body weight.

[3] = test system: emesia caused by an antieoplastic drug (cisplatin); assay: antiemetic activity against cisplatin-caused emesis; type: in vivo; settings: Columbidae, sc, in pigeons, administered subcutaneously, read-out: Reduction of vomiting(50%)
Method: The compounds also tested in pigeons against emesia caused by an antieoplastic drug (cisplatin) according to the method described in Feigenbaum et al., Eur. J. Pharmacol. 169, 159-165 (1989). Representative results are presented in Table I. The compounds were dissolved as described above for the tests on analgesia, and administered subcutaneously. The injection volume was 1.0 ml/kg body weight.

[4] = test system: Arachidonic Acid-Induced Paw Edema; assay: arachidonic acid-induced paw edema; type: in vivo; settings: Mus musculus, po, compared to vehicle treated controls (peanut oil orally), N=5 mice/group, read-out: percent inhibition of paw edema; for inhibition at 0.05 mg/kg: dose 0.050 mg/kg; for inhibition at 0.1 mg/kg: dose 0.100 mg/kg; for inhibition at 0.25 mg/kg: dose 0.250 mg/kg
Method: The compounds were tested by a method reported by W. Calhoun et al., Agents and Actions, 21, 306-a309 (1987). Water was substituted for mercury as the displacement medium. PAF (1.0 µg) or arachidonic acid (1.0mg) dissolved in 50 µl of 5% ethanol in saline was injected s.c. into the plantar surface of the right hind paw of female mice (20-25g). The mice were under ether anesthesia during this procedure. The volume of the right foot was measured to the level of the lateral malleous by water displacement before treatment and 15 min after PAF injection or 30 min after arachidonic injection. The change in paw volume was calculated for each mouse.

[5] = biological target: T1, cannabinoid receptor (Rattus norvegicus, UniProt P20272); assay: centrifugation radioligand binding assay with [3H]HU-243 on synaptosomal membranes
T1 construct: Synaptosomal membranes were prepared from rat whole brain-minus brainstem; from tissue; host or cells: rat whole brain minus brainstem, synaptosomal membranes (Sprague-Dawley males)
T1 sequence (P20272 whole entry): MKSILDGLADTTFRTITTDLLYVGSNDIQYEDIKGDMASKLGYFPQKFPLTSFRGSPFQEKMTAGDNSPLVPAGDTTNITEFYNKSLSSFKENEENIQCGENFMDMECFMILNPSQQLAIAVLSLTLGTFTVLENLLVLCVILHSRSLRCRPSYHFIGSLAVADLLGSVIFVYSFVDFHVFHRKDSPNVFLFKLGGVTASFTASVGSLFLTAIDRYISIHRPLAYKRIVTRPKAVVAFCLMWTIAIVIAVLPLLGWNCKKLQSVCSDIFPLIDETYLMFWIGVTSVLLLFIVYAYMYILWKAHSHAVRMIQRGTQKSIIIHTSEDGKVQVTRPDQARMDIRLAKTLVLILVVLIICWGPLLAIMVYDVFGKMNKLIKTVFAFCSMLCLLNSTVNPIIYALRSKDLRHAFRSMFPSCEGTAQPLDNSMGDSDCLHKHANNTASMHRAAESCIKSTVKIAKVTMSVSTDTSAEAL
Method: To screen for endogenous cannabinoid compounds there were tested brain-derived fractions using a centrifugation radioligand binding assay. […] Particular attention was paid to the binding of [^3H]HU-243 to the siliconized polypropylene microfuge tubes in which the assay was conducted. Normally, about 15-20% of the added [^3H]HU-243 adheres to the microfuge tube, with the amount increasing slightly when unlabelled cannabinoid drugs displace the radioligand from the receptor.
Synaptosomal membranes were prepared from rat whole brain-minus brainstem (Sprague-Dawley males, 430-470g). [^3H]HU-243 (45-55 pM) was incubated with synaptosomal membranes (protein content 3-4 µg) for 90 min at 30°C with either the indicated concentrations of anandamide or the vehicle alone (fatty acid-free bovine serum albumin, final concentration-0.5 mg/ml). Bound and free radioligand were separated by centrifugation (see ref. 8 for full details of the assay). The data were normalized to 100% of specific binding, which was determined with 50 nM unlabeled HU-243. The amount of specific binding was 77-82% of the total radioactivity bound to the membranes. Data points (□, ▲) represent the average of triplicate determinations from two independent experiments.

[6] = test system: mouse vas deferens; assay: electrically-evoked twitch response of the mouse vas deferens
Method: R.G. Pertwee, L.A. Stevenson, D.B. Elrick, R. Mechoulam, A.D. Corbett, Brit. J. Pharmacol. 105, 980 (1992). […] The structure of anandamide was established by mass spectrometry (MS) and nuclear magnetic resonance (NMR) spectroscopy. Additional data were obtained from the GC-MS and CID measurements of the trimethylsilyl (TMS) derivative of the material.
Fig. 2. Inhibition of vas deferens twitch response by natural anandamide. Vasa deferentia obtained from MFI mice were mounted in 4 ml siliconized organ baths under an initial tension of 0.5 g. The baths contained Mg++ -Free Krebs solution which was kept at 37 C and bubbled with 95% 02 and 5% CO2 . Tissues were stimulated supramaximally with 0.5 s trains of 3 pulses (train frequency 0.1 Hz: pulse duration 0.5 ms). Isometric contractions were recorded. Natural anandamide was dispersed in Tween 80 and saline (see ref. 12) and added in volumes of 40 µl.

CC[C@@H]1C(=O)OC[C@@H]1Cc1cncn1C [pilocarpine]
delays recovery to half time of the original I.O.P. [1]: about 30 hours

CC/C=C\C/C=C\C/C=C\C/C=C\C/C=C\C/C=C\CCC(=O)NCCO [4,7,10,13,16,19-docosahexaenylethanolamide]
ED50 [2]: 6.1 mg/kg | ED50 [3]: 4.8 mg/kg | inhibition at 0.05 mg/kg [4]: 52.4% | inhibition at 0.1 mg/kg [4]: 66.8% | inhibition at 0.25 mg/kg [4]: 72%

CCCCC/C=C\C/C=C\C/C=C\C/C=C\CCCC(=O)NCC(C)(C)O [arachidonoyl-β-dimethylethanolamide]
Ki ([5]; synthetic compounds, prepared and tested): 162 ± 34.1 nM

CCCCC/C=C\C/C=C\C/C=C\C/C=C\CCCC(=O)NCCO [Arachidonylethanolamide, 5,8,11,14-icosatetraenamide, (N,-2-hydroxyethyl)-(all-Z)]
inhibition of the twitch response ([6]; electrically-evoked, mouse vas deferens): concentration-dependent inhibition | reversal of the inhibition of the twitch response by naloxone ([6]; naloxone 300 nM): not reversed | ED50 [2]: 4.2 mg/kg | ED50 [3]: 2.5 mg/kg | inhibition at 0.01 mg/kg ([4]; dose 0.010 mg/kg): 56.2% | inhibition at 0.025 mg/kg ([4]; dose 0.025 mg/kg): 58.4% | inhibition at 0.05 mg/kg [4]: 74.2% | inhibition at 0.1 mg/kg [4]: 98% | inhibition at 0.25 mg/kg [4]: 100%

CCCCC/C=C\C/C=C\C/C=C\C/C=C\CCCCCC(=O)NCCO [cis-7,10,13,16-docosatetraenoylethanolamide]
Ki ([5]; compounds isolated from the brain and synthesized): 34.4 ± 3.2 nM
